ChEMBL document CHEMBL1201861, “Genomics of Drug Sensitity in Cancer screening data, Wellcome Trust Sanger Institute”
pIC50: −log10 of the molar value.

How the values were obtained:
Assay in all cases: cells
BV-173 = format: functional, cell-based; conditions: Homo sapiens
NCI-H209 = format: functional, cell-based; conditions: Homo sapiens;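 note: growth inhibition of human NCI-H209 cells, measured by a cell viability assay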
LB373-MEL-D = format: functional, cell-based, Homo sapiens; conditions: Homo sapiens, LB373-MEL-D;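 note: growth inhibition of the cell line, read out in a cell viability assay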
DJM-1 = format: functional, cell-based, Homo sapiens; conditions: Homo sapiens, DJM-1;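 note: growth inhibition of human DJM-1 cells, read out by a cell viability assay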
ML-2 = format: functional, cell-based; conditions: Homo sapiens;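 note: growth inhibition of ML-2 cells, measured with a cell viability readout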
HC-1 = format: functional, cell-based; conditions: Homo sapiens;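 note: growth inhibition of HC-1 cells measured by a cell viability assay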
ACN = format: functional, cell-based, Homo sapiens; conditions: Homo sapiens, ACN;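 note: growth inhibition of the human ACN cell line, read out via cell viability testing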
NCI-H1648 = format: functional, cell-based, Homo sapiens; conditions: Homo sapiens, NCI-H1648;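 note: cell viability assay measuring inhibition of NCI-H1648 cell growth, from the Sanger screening data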
Becker = format: functional, cell-based, Homo sapiens; conditions: Homo sapiens, Becker;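 note: growth inhibition of Becker cells, read out with a cell viability assay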
D-247MG = format: functional, cell-based, Homo sapiens; conditions: Homo sapiens, D-247MG
L-363 = format: functional, cell-based; conditions: Homo sapiens
SH-4 = format: functional, cell-based, Homo sapiens; conditions: Homo sapiens, SH-4;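 note: growth inhibition of SH-4 cells, read out with a cell viability assay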
MV4-11 = format: functional, cell-based, MV-4-11; conditions: Homo sapiens;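 note: cell viability readout measuring growth inhibition of human MV-4-11 cells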
KGN = format: functional, cell-based, Homo sapiens; conditions: Homo sapiens, KGN;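 note: growth inhibition of KGN cells, read out with a cell viability assay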
NCI-H1155 = format: functional, cell-based; conditions: Homo sapiens;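 note: cell growth inhibition measured by a viability assay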
P30-OHK = format: functional, cell-based; conditions: Homo sapiens;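 note: growth inhibition of the P30-OHK cell line, read out with a cell viability assay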
KMOE-2 = format: functional, cell-based; conditions: Homo sapiens;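 note: growth inhibition of human KMOE-2 cells, read out with a cell viability assay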
MMAC-SF = format: functional, cell-based, Homo sapiens; conditions: Homo sapiens, MMAC-SF;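 note: growth inhibition of human MMAC-SF cells, read out with a cell viability assay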
LB2241-RCC = format: functional, cell-based, Homo sapiens; conditions: Homo sapiens, LB2241-RCC;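 note: cell viability assay measuring how strongly the cultured human renal carcinoma line is prevented from growing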
NCI-H526 = format: functional, cell-based; conditions: Homo sapiens;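 note: growth inhibition of the human NCI-H526 cell line, measured by a cell viability assay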
KM-H2 = format: functional, cell-based; conditions: Homo sapiens;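 note: growth inhibition of KM-H2 cells, read out by a cell viability assay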
RS4-11 = format: functional, cell-based; conditions: Homo sapiens;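 note: growth inhibition of RS4-11 cells, read out by a cell viability assay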
KARPAS-299 = format: functional, cell-based; conditions: Homo sapiens
NCI-H1770 = format: functional, cell-based; conditions: Homo sapiens;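 note: growth inhibition of NCI-H1770 cells determined with a viability readout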
GB-1 = format: functional, cell-based, Homo sapiens; conditions: Homo sapiens, GB-1;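 note: growth of GB-1 cells judged by a viability assay, IC50 marks the concentration inhibiting growth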
SK-MEL-1 = format: functional, cell-based; conditions: Homo sapiens;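 note: growth inhibition of human SK-MEL-1 cells, read out by a cell viability assay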
GAK = format: functional, cell-based, Homo sapiens; conditions: Homo sapiens, GAK;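 note: cell growth inhibition read out by a cell viability assay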
LOX IMVI = format: functional, cell-based; conditions: Homo sapiens
MFM-223 = format: functional, cell-based, Homo sapiens; conditions: Homo sapiens, MFM-223
HCE-4 = format: functional, cell-based, Homo sapiens; conditions: Homo sapiens, HCE-4;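 note: cell viability assay measuring inhibition of growth in the human HCE-4 cell line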
JVM-3 = format: functional, cell-based; conditions: Homo sapiens;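 note: growth inhibition of human JVM-3 cells, read out with a cell viability assay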
TE-10 = format: functional, cell-based, Homo sapiens; conditions: Homo sapiens, TE-10;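 note: growth inhibition of TE-10 cells, measured by a cell viability assay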
SCH = format: functional, cell-based, Homo sapiens; conditions: Homo sapiens, SCH;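 note: growth inhibition of human SCH cells, read out in a cell viability assay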

CN1CCN(CCOc2cc(OC3CCOCC3)c3c(Nc4c(Cl)ccc5c4OCO5)ncnc3c2)CC1 [SARACATINIB] was tested. Which pIC50 (BV-173) did it give?
Its pIC50 is 6.19.

And the pIC50 (NCI-H209)?
The pIC50 was < 5.70.

And the pIC50 (LB373-MEL-D)?
Its pIC50 is < 5.70.

What about the pIC50 (DJM-1) of the same compound?
The pIC50 was < 5.70.

What about the pIC50 (ML-2) of the same compound?
Its pIC50 is < 5.70.

And the pIC50 (HC-1)?
The pIC50 was < 5.70.

What about the pIC50 (ACN) of the same compound?
The pIC50 was < 5.70.

And the pIC50 (NCI-H1648)?
Its pIC50 is 6.55.

What about the pIC50 (Becker) of the same compound?
Its pIC50 is < 5.70.

What about the pIC50 (D-247MG) of the same compound?
Its pIC50 is < 5.70.

And the pIC50 (L-363)?
Its pIC50 is < 5.70.

What about the pIC50 (SH-4) of the same compound?
The pIC50 was < 5.70.

What about the pIC50 (MV4-11) of the same compound?
Its pIC50 is < 5.70.

And the pIC50 (KGN)?
The pIC50 was 5.89.

What about the pIC50 (NCI-H1155) of the same compound?
The pIC50 was < 5.70.

What about the pIC50 (P30-OHK) of the same compound?
Its pIC50 is < 5.70.

And the pIC50 (KMOE-2)?
The pIC50 was < 5.70.

What about the pIC50 (MMAC-SF) of the same compound?
The pIC50 was < 5.70.

What about the pIC50 (LB2241-RCC) of the same compound?
Its pIC50 is < 5.70.

What about the pIC50 (NCI-H526) of the same compound?
Its pIC50 is < 5.70.

What about the pIC50 (KM-H2) of the same compound?
Its pIC50 is < 5.70.

And the pIC50 (RS4-11)?
Its pIC50 is < 5.70.

What about the pIC50 (KARPAS-299) of the same compound?
The pIC50 was < 5.70.

And the pIC50 (NCI-H1770)?
The pIC50 was < 5.70.

And the pIC50 (GB-1)?
The pIC50 was 5.75.

And the pIC50 (SK-MEL-1)?
The pIC50 was < 5.70.

What about the pIC50 (LOX IMVI) of the same compound?
The pIC50 was < 5.70.

And the pIC50 (MFM-223)?
Its pIC50 is < 5.70.

And the pIC50 (HCE-4)?
Its pIC50 is < 5.70.

What about the pIC50 (JVM-3) of the same compound?
The pIC50 was < 5.70.

What about the pIC50 (TE-10) of the same compound?
Its pIC50 is 5.78.

With CO[C@H]1C[C@@H]2CC[C@@H](C)[C@@](O)(O2)C(=O)C(=O)N2CCCC[C@H]2C(=O)O[C@H]([C@H](C)C[C@@H]2CC[C@@H](O)[C@H](OC)C2)CC(=O)[C@H](C)/C=C(\C)[C@@H](O)[C@@H](OC)C(=O)[C@H](C)C[C@H](C)/C=C/C=C/C=C/1C [SIROLIMUS] as the compound, how does the pIC50 (BV-173) read?
The pIC50 was 7.08.

What about the pIC50 (NCI-H209) of the same compound?
The pIC50 was 7.06.

What about the pIC50 (LB373-MEL-D) of the same compound?
The pIC50 was < 7.00.

And the pIC50 (DJM-1)?
The pIC50 was < 7.00.

What about the pIC50 (ML-2) of the same compound?
Its pIC50 is < 7.00.

And the pIC50 (HC-1)?
Its pIC50 is < 7.00.

What about the pIC50 (ACN) of the same compound?
Its pIC50 is < 7.00.

And the pIC50 (NCI-H1648)?
The pIC50 was < 7.00.

What about the pIC50 (Becker) of the same compound?
The pIC50 was 7.39.

What about the pIC50 (D-247MG) of the same compound?
The pIC50 was < 7.00.

What about the pIC50 (L-363) of the same compound?
The pIC50 was 7.35.

And the pIC50 (SH-4)?
Its pIC50 is 8.36.

What about the pIC50 (MV4-11) of the same compound?
Its pIC50 is 7.08.

And the pIC50 (KGN)?
The pIC50 was 7.02.

What about the pIC50 (NCI-H1155) of the same compound?
The pIC50 was < 7.00.

What about the pIC50 (P30-OHK) of the same compound?
The pIC50 was < 7.00.

And the pIC50 (KMOE-2)?
Its pIC50 is < 7.00.

And the pIC50 (MMAC-SF)?
The pIC50 was < 7.00.

And the pIC50 (LB2241-RCC)?
Its pIC50 is < 7.00.

What about the pIC50 (NCI-H526) of the same compound?
Its pIC50 is 7.03.

What about the pIC50 (KM-H2) of the same compound?
Its pIC50 is < 7.00.

And the pIC50 (RS4-11)?
Its pIC50 is < 7.00.

What about the pIC50 (KARPAS-299) of the same compound?
Its pIC50 is 7.21.

And the pIC50 (NCI-H1770)?
The pIC50 was < 7.00.

What about the pIC50 (GB-1) of the same compound?
Its pIC50 is < 7.00.

What about the pIC50 (SK-MEL-1) of the same compound?
Its pIC50 is < 7.00.

What about the pIC50 (GAK) of the same compound?
The pIC50 was < 7.00.

What about the pIC50 (LOX IMVI) of the same compound?
The pIC50 was < 7.00.

What about the pIC50 (MFM-223) of the same compound?
Its pIC50 is < 7.00.

And the pIC50 (HCE-4)?
The pIC50 was < 7.00.

And the pIC50 (JVM-3)?
The pIC50 was < 7.00.

What about the pIC50 (TE-10) of the same compound?
Its pIC50 is 8.48.

Which results are given for CCC(=O)N1CCN(c2ccc(-n3c(=O)ccc4cnc5ccc(-c6cnc7ccccc7c6)cc5c43)cc2C(F)(F)F)CC1 [TORIN1]?
pIC50 (BV-173): 7.66; pIC50 (NCI-H209): 6.64; pIC50 (LB373-MEL-D): 6.81; pIC50 (DJM-1): < 5.92; pIC50 (ML-2): 6.86; pIC50 (HC-1): 7.23; pIC50 (ACN): 7.82; pIC50 (NCI-H1648): 7.44; pIC50 (Becker): 7.19; pIC50 (D-247MG): < 5.92; pIC50 (L-363): 8.55; pIC50 (SH-4): 7.45; pIC50 (MV4-11): 7.16; pIC50 (KGN): 7.87; pIC50 (NCI-H1155): 6.18; pIC50 (P30-OHK): < 5.92; pIC50 (KMOE-2): 6.56; pIC50 (SCH): 6.85; pIC50 (MMAC-SF): 7.58; pIC50 (LB2241-RCC): < 5.92; pIC50 (NCI-H526): 6.04; pIC50 (KM-H2): < 5.92; pIC50 (RS4-11): 7.23; pIC50 (KARPAS-299): 6.91; pIC50 (NCI-H1770): < 5.92; pIC50 (GB-1): 7.81; pIC50 (SK-MEL-1): < 5.92; pIC50 (GAK): 7.50; pIC50 (LOX IMVI): 6.90; pIC50 (MFM-223): < 5.92; pIC50 (HCE-4): 7.41; pIC50 (JVM-3): < 5.92; pIC50 (TE-10): 7.48

How did the pIC50 (BV-173) turn out when Cc1cc(Nc2cc(N3CCN(C)CC3)nc(Sc3ccc(NC(=O)C4CC4)cc3)n2)n[nH]1 [TOZASERTIB] was run?
Its pIC50 is 6.90.

And the pIC50 (NCI-H209)?
Its pIC50 is < 5.70.

What about the pIC50 (LB373-MEL-D) of the same compound?
The pIC50 was < 5.70.

What about the pIC50 (DJM-1) of the same compound?
Its pIC50 is < 5.70.

And the pIC50 (ML-2)?
The pIC50 was 6.04.

And the pIC50 (HC-1)?
The pIC50 was < 5.70.

What about the pIC50 (ACN) of the same compound?
Its pIC50 is < 5.70.

What about the pIC50 (NCI-H1648) of the same compound?
Its pIC50 is < 5.70.

And the pIC50 (Becker)?
The pIC50 was < 5.70.

And the pIC50 (D-247MG)?
Its pIC50 is < 5.70.

And the pIC50 (L-363)?
Its pIC50 is < 5.70.

And the pIC50 (SH-4)?
Its pIC50 is < 5.70.

And the pIC50 (MV4-11)?
The pIC50 was 7.11.

What about the pIC50 (KGN) of the same compound?
The pIC50 was 6.05.

What about the pIC50 (NCI-H1155) of the same compound?
Its pIC50 is < 5.70.

And the pIC50 (P30-OHK)?
The pIC50 was < 5.70.

What about the pIC50 (KMOE-2) of the same compound?
The pIC50 was < 5.70.

And the pIC50 (SCH)?
Its pIC50 is < 5.70.

What about the pIC50 (MMAC-SF) of the same compound?
The pIC50 was < 5.70.

What about the pIC50 (LB2241-RCC) of the same compound?
The pIC50 was < 5.70.

What about the pIC50 (NCI-H526) of the same compound?
The pIC50 was < 5.70.

And the pIC50 (KM-H2)?
Its pIC50 is < 5.70.

What about the pIC50 (RS4-11) of the same compound?
The pIC50 was 8.39.

And the pIC50 (KARPAS-299)?
The pIC50 was < 5.70.

And the pIC50 (NCI-H1770)?
Its pIC50 is < 5.70.

And the pIC50 (GB-1)?
The pIC50 was < 5.70.

What about the pIC50 (SK-MEL-1) of the same compound?
The pIC50 was < 5.70.

What about the pIC50 (LOX IMVI) of the same compound?
Its pIC50 is < 5.70.

And the pIC50 (MFM-223)?
Its pIC50 is < 5.70.

What about the pIC50 (HCE-4) of the same compound?
The pIC50 was 6.06.

What about the pIC50 (JVM-3) of the same compound?
The pIC50 was < 5.70.

And the pIC50 (TE-10)?
The pIC50 was 5.95.
